Test: Uptake and metabolism of ERG240 in human macrophage lysates by GC/MS
Type: in vitro ADME
From the text: NCOMMS-16-23550_Point by Point Responses Papathanassiu et al.
Add additional explanation for “extracellular space” findings because this is unclear.
Authors’ reply. ‘Extracellular space’ has now been replaced by ‘extracellular matrix genes’ in the revised manuscript (Figure 3 in the submitted manuscript which is now Figure 4 in the revised one). We have also added a Volcano plot showing the differentially expressed genes (Figure 4E in the revised manuscript).
Authors fail to cite and discuss this paper found in quick google search “ Nemeth, B.; Doczi, J.; Csete, D.; Kacso, G.; Ravasz, D.; Adams, D.; Kiss, G.; Nagy, A. M.; Horvath, G.; Tretter, L.; Mocsai, A.; Csepanyi-Komi, R.; Iordanov, I.; Adam-Vizi, V.; Chinopoulos, C. (2015).
“Abolition of mitochondrial substrate-level phosphorylation by itaconic acid produced by LPS-induced Irg1 expression in cells of murine macrophage lineage”. The FASEB Journal.
Authors’ reply. This paper is now cited and discussed by adding this following paragraph to the discussion (highlighted text).
Besides its antimicrobial effects, itaconate has been proposed as an inhibitor of substrate level phosphorylation (SLP) through its effect on succinate-CoA ligase in RAW-264.7 cells1.
Statistical analysis (or indications in figures) is lacking in Fig 1C. Fig 4C.
Authors’ reply. Statistical analyses are added for Fig 1C and 4C. Please note that Figure
4C is now Figure 5C in the revised manuscript. (See also highlighted text in figure legends).
Dosing in vitro should be discussed further- 20mM in vitro is a high dose if IC50 is in nM […]
Authors’ reply. ERG240 is a structural analogue of leucine, designed based on the X-ray crystal structure of BCAT1 and, as the reviewer correctly states, it can inhibit BCAT1 within 0.1-1nM range of IC50. The concentration of 20 mM used in the cellular assays is because […]
possible competition with leucine, which is in mM concentration (0.381 mM) in the RPMI media used throughout the study. […]
A cartoon of metabolites regulated would aid the reader. […]
ERG240 can easily be detected […]

## CC(=O)C(C)CCC(=O)O (stereo not drawn) [ERG240]
1x10^6 cells treated with 3.28 mg ERG240 (20 mM)
  uptake of the compound by cells: 0.8 to 3 ng
Human macrophages treated with 20 mM
  estimated intracellular ERG240 concentration: 70 to 260 nM
Lysates of human macrophages, GC/MS
  cellular metabolism of the drug: does not undergo any cellular metabolic reaction

From article PMC5510229, “BCAT1 controls metabolic reprogramming in activated human macrophages and is associated with inflammatory diseases” (Nature Communications, 2017)
